In patent US20140243401A1, “METHODS OF SCREENING COMPOUNDS THAT ARE CYTOTOXIC TO TUMOR CELLS AND METHODS OF TREATING TUMOR CELLS USING SUCH COMPOUND” (The Johns Hopkins University, priority 2010, published 2014):

What was measured:
mitochondrial FAS = assay: 14C-malonate incorporation into mitochondrial fatty acids, mitochondria isolated from rat liver; type: biochemical; conditions: FIG. 3
Procedure: Mammalian mitochondrial FAS activity may be determined in a variety of ways. For example, [14C]malonate may be added to isolated mitochondria, fatty acids are extracted, and then radioactivity is tested. (See Zhang et al., J. Bio. Chem. 278(41): 40067-40074, 2003; Mikolajczyk, J. and Brody, S., Eur. J. Biochem. 187: 431-437, 1990). The mitochondria are purified using methods known in the art. (See Qiagen's Qproteome Mitochondria Isolation Kit; Methods in Enzymology, Vol. 10, Chapter 11, 1967). To test the inhibition of mmFAS activity, a test compound is added to the reaction mixture. Therefore, a test compound may be screened according the methods described herein as follows: (i) isolating mitochondria; (ii) incubating mitochondria with [14C]malonate with and without a test compound; and (iii) determining the quantity of lipids and/or fatty acids produced. By comparing the amount of product in the presence of the test compound to the amount in its absence, the degree of inhibition can be determined.
Mitochondria from MCF7 cells were prepared following manufacturer's protocol (Mitochondria Isolation Kit, Sigma, Saint Louis, Mo.). Rat liver mitochondria were isolated by homogenization with a tissue homogenizer in H-medium (220 mM mannitol, 70 mM sucrose, 2 mM HEPES, and 0.5 g/L of fatty acid free bovine serum albumin, pH 7.4). The homogenate was centrifuged at 1100 g for 3 min and washed twice with H-medium. The supernatants were pooled and centrifuged at 6800 g for 15 min. The pellet was then rinsed again and centrifuged at 3000 g for 3 min. The mitochondria supernatants were saved. The sediments were resuspended in H-medium and centrifuged at 3000 g for 3 min. The mitochondria supernatants were combined and centrifuged at 20,000 g for 15 min. The resulting mitochondria pellet were rinsed and centrifuged again at 20,000 g for 20 min.
Isolated mitochondria (100-200 μg) were mixed with 50 mM TES-KOH (pH 7.2), 10 mM MgCl2, 0.3 M sorbitol, 0.1% BSA, 1 mM each of ATP, ADP, NADH, NADPH, CoA, DTT and 1 μCi of [2-^14C]malonic acid (50 mCi/mmol) in a total volume of 200 μl. The reaction was performed for 30 min at room temperature. C31, Riv7d or vehicle were added at the beginning of this reaction. At the end of 30 minutes, the mitochondria pellet was separated from supernatant by centrifugation at 14000 rpm for 5 min. After washing with 500 μl of 50 mM TES-KOH (pH 7.2) and 0.3 M sorbitol, the mitochondria were incubated in 200 μl of H2O and 20 μl of 10 M KOH for 15 min at 65° C. Then the samples were added with 40 μl of 5 M H2SO4 and 20 μl of 1 mM palmitic acid (in 1 M acetic acid in isopropanol). The ^14C labeled fatty acids were twice extracted with hexane and sent to scintillation counting after drying.

MCF7 cells = assay: cellular ATP level, bioluminescence; type: cell-based, human
Procedure: As mitochondria serve as the energy production center of the cell, their main purpose is the generation of ATP. As a functional readout, cellular ATP levels may be measured to obtain an indication of mitochondrial status upon compound treatment. MCF-7 cells were cultured the standard medium, and ATP levels were measured by chemiluminescence.
MCF7 human breast cancer cells cultured in DMEM containing 5 mM glucose medium with 10% fetal calf serum, 0.01 mg/ml insulin and 1% penicillin/streptomycin. Cells were plated in 24-well cell culture plates at 2×10^5 per well overnight. After drug treatment, cells were lysed using 500 μl of TE buffer (4 mM Tris, 0.25 mM EDTA, pH 7.4) and boiled at 95° C. for 7 min. ATP levels were measured within the linear range using the ATP BioLuminescence Kit CLSII (Roche) by following the manufacture's recommendation. Luminescence was detected using PerkinElmer Victor 1420.
Determination of the effect on cellular ATP level was carried out using the procedure described above. Cells were plated in 24 well cell culture plates at 2×10^5 per well overnight. Cells were cultured in 1 mM or 5 mM glucose at either 1% or 21% (ambient) oxygen levels. […] ATP levels were measured within the linear range using the ATP Bioluminescence Kit CLSII (Roche) by following the manufacture's recommendation. Luminescence was detected using PerkinElmer Victor 1420.

[1] = system: SKOV3 human ovarian cancer xenograft; assay: tumor xenograft size, SKOV3; type: in vivo, Athymic Nude mice
Procedure: Xenograft studies were performed using various mmFAS inhibitors disclosed herein. Human cancer xenograft studies are known in the art. (See Pizer et al., Cancer Res. 56:1189-1193, 1996; Pizer et al., Cancer Res. 60: 213-218, 2000; Testa et al., Oncogene 24: 7455-7464, 2005).
In particular, C31 mouse efficacy studies were conducted in order to evaluate anti-neoplastic activity of C31 in vivo. Athymic Nude mice were implanted with HCT116 human colon, SKOV3 human ovarian or OVCAR3 human ovarian cancer cell lines and were treated when the grown tumor xenografts reached at least 150 to 200 mm^3.^1 ^1 Compounds were solubilized in TEP (80% polyethylene glycol (PEG) 400, 10% ethanol, 10% tween-80) in a volume of 50 μL.

SMILES: CCCCCCCCC1(C)SC(=O)C=C1OCC(=O)Nc1ccc(Cl)cc1 (stereo not drawn) [Compound C31]
- IC50, inhibition of mitochondrial FAS (14C-malonate incorporation) (mitochondrial FAS; isolated mitochondria): less than 4 μg per mL
- effect on 14C-malonate incorporation into mitochondrial fatty acids (mitochondrial FAS; mitochondria isolated from rat liver): dose-dependent inhibitory effect
- ATP levels (MCF7 cells; MCF7, 1 mM or 5 mM glucose, 1% or 21% oxygen, FIG. 10): ATP levels declined in all of the cells
- ATP levels (MCF7 cells; MCF7, standard medium 5 mM glucose, FIG. 5): rapidly decreased
- Average Tumor Size Endpoint (% Change) ([1]; Study 11007, SKOV-3, oral b.i.d. 11 days, 50 mg/kg): −78 % Change
- Average Tumor Size Endpoint (% Change) ([1]; Study 52307, SKOV-3, oral b.i.d. 15 days, 50 mg/kg): −75 % Change
- Average Tumor Size Endpoint (% Change) ([1]; Study 121306, SKOV-3, IP b.i.d. 12 days, 10 mg/kg): +179 % Change
- Average Tumor Size Endpoint (% Change) ([1]; Study 121306, SKOV-3, IP b.i.d. 12 days, 50 mg/kg): −78 % Change
- Average Tumor Size Endpoint (% Change) ([1]; Study 121306, SKOV-3, IP b.i.d. 12 days, 100 mg/kg): −78 % Change
- Average Tumor Size Endpoint (% Change) ([1]; Study 3150772607, SKOV-3, IP b.i.d. 10 days, 25 mg/kg): −74 % Change
- Average Tumor Size Endpoint (% Change) ([1]; Study 3150772607, SKOV-3, IP b.i.d. 10 days, 50 mg/kg): −87 % Change
- Average Tumor Size Endpoint (% Change) ([1]; Study 3150772607, SKOV-3, IP b.i.d. 10 days, 150 mg/kg): −83 % Change
